Common to all, as to assay: stopped-flow CO2 hydrase assay
Type in all cases: biochemical

For one experiment, the target named is T1, CA II (Homo sapiens, UniProt P00918).
T1 construct: gene CA2; recombinant, obtained in-house
The procedure, abridged: (§1)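 Ki values were derived by nonlinear least squares using the Cheng–Prusoff equation, applied to initial rates after subtraction of the uncatalysed rate. Values are means of at least three determinations of CO2 hydration by recombinant human carbonic anhydrase isoforms made in-house, measured by stopped-flow (Applied Photophysics) at 557 nm for 10–100 s in 20 mM Hepes (pH 7.5) with 20 mM Na2SO4, 0.2 mM phenol red and 1.7–17 mM CO2. Before the reaction, enzyme and inhibitor were preincubated for 15 min at room temperature.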

Another experiment deals with T2, CA IX (Homo sapiens, UniProt Q16790).
T2 construct: gene CA9; recombinant, obtained in-house
In outline:
as §1

For a further experiment, the target named is T3, CA XII (Homo sapiens, UniProt O43570).
T3 construct: gene CA12; recombinant, obtained in-house
T3 sequence (O43570 25-354): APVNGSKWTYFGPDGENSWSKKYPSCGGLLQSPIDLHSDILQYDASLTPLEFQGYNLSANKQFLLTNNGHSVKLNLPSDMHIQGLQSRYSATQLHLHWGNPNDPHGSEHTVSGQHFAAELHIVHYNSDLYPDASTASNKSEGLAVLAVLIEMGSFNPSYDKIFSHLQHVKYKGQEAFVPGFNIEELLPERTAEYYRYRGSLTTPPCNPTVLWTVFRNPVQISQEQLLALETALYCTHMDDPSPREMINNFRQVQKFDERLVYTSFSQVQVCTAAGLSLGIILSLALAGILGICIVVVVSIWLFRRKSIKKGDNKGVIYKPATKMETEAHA
The procedure, abridged: as §1

Another experiment addresses T4, CA VII (Homo sapiens, UniProt P43166).
T4 construct: gene CA7; recombinant, obtained in-house
The procedure, abridged: as §1

The next experiment concerns the target T5, CA I (Homo sapiens, UniProt P00915).
T5 construct: gene CA1; recombinant, obtained in-house
In outline:
as §1

The values that follow come from paper PMC7177888, “Aryl-4,5-dihydro-1H-pyrazole-1-carboxamide Derivatives Bearing a Sulfonamide Moiety Show Single-digit Nanomolar-to-Subnanomolar Inhibition Constants against the Tumor-associated Human Carbonic Anhydrases IX and XII” (International Journal of Molecular Sciences, 2020).

SMILES strings stand for the structures. Like-named read-outs stand apart in the source and are kept apart here.

T5 sequence (P00915 2-261): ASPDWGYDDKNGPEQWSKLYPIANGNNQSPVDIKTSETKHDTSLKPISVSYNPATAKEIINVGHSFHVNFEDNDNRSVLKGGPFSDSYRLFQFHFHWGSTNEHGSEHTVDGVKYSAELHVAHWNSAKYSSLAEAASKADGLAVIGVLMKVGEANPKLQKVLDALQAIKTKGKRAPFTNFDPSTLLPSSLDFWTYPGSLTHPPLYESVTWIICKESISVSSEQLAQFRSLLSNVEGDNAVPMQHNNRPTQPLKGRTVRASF
T4 sequence (P43166 whole entry): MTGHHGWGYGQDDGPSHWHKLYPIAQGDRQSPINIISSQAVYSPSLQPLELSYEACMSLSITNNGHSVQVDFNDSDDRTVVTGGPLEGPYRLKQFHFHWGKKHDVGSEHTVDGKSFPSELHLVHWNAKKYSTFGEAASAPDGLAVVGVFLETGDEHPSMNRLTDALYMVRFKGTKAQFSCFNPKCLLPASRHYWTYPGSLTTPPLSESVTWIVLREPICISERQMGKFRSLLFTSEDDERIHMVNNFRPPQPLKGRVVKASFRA

In the case of `NS(=O)(=O)c1ccc(NC(=O)N2N=C(c3ccccc3)CC2c2ccccc2)cc1` (stereo not shown) [compound 5, 3,5-Diphenyl-4,5-dihydro-pyrazole-1-carboxylic acid (4-sulfamoyl-phenyl)-amide], the Ki on CA II was found to be 67.3 nM; at CA IX (read-out: KI (nM) / CA IX) it was 1.3 nM; on CA XII, 7.7 nM; on CA VII, 33.2 nM; on CA I it was 382 nM.
For `NS(=O)(=O)c1ccc(NC(=O)N2N=C(c3ccccc3)CC2c2ccc(Cl)cc2)cc1` (stereo not shown) [compound 6, 5-(4-Chlorophenyl)-3-phenyl-4,5-dihydro-pyrazole-1-carboxylic acid (4-sulfamoyl-phenyl)-amide], in that order: 8.2 nM, 1.4 nM, 1.2 nM, 7.7 nM and 36.2 nM.
`NS(=O)(=O)c1ccc(NC(=O)N2N=C(c3ccccc3)CC2c2ccc(F)cc2)cc1` (stereo not shown) [compound 7, 5-(4-Flurophenyl)-3-phenyl-4,5-dihydro-pyrazole-1-carboxylic acid (4-sulfamoyl-phenyl)-amide]: the Ki was 58.2 nM on CA II; 1.5 nM on CA IX (read-out: KI (nM) / CA IX); 6.3 nM at CA XII; 2.3 nM on CA VII; 252 nM at CA I.
The like results for `NS(=O)(=O)c1ccc(NC(=O)N2N=C(c3ccccc3)CC2c2c(F)cccc2Cl)cc1` (stereo not shown) [compound 8, 5-(2-Chloro-6-fluorophenyl)-3-phenyl-4,5-dihydro-pyrazole-1-carboxylic acid (4-sulfamoyl-phenyl)-amide] were, in that order, 5.2 nM, 1.5 nM, 1.4 nM, 2.4 nM and 38.3 nM.
The like results for `NS(=O)(=O)c1ccc(NC(=O)N2N=C(c3ccccc3)CC2c2cccs2)cc1` (stereo not shown) [compound 9, 3-Phenyl-5-thiophene-2-yl-4,5-dihydro-pyrazole-1-carboxylic acid (4-sulfamoyl-phenyl)-amide] were, in that order, 5.2 nM, 1.4 nM, 2.5 nM, 1.9 nM and 185 nM.
For `NS(=O)(=O)c1ccc(NC(=O)N2N=C(c3ccccc3)CC2c2c3ccccc3cc3ccccc23)cc1` (stereo not shown) [compound 10, 5-Anthracene-9-yl-3-phenyl-4,5-dihydro-pyrazole-1-carboxylic acid (4-sulfamoyl-phenyl)-amide], in that order: 7.1 nM, 1.3 nM, 6.8 nM, 2.4 nM and 293 nM.
Consider `NS(=O)(=O)c1ccc(NC(=O)N2N=C(c3ccccc3)CC2c2ccc(Cl)cc2Cl)cc1` (stereo not shown) [compound 11, 5-(2,4-Dichlorophenyl)-3-phenyl-4,5-dihydro-pyrazole-1-carboxylic acid (4-sulfamoyl-phenyl)-amide], for which the Ki at CA II worked out at 5.4 nM; on CA IX (read-out: KI (nM) / CA IX), 1.4 nM; on CA XII, 0.84 nM; at CA VII, 2.5 nM; at CA I it was 39.5 nM.
Take `NS(=O)(=O)c1ccc(NC(=O)N2N=C(c3ccc(Cl)cc3)CC2c2ccccc2)cc1` (stereo not shown) [compound 12, 3-(4-Chlorophenyl)-5-phenyl-N-(4-sulfamoylphenyl)-4,5-dihydro-1H-pyrazole-1-carboxamide]: the Ki is 233 nM on CA II; 16.5 nM on CA IX (read-out: KI (nM) / CA IX); 9.2 nM on CA XII; 350 nM on CA VII; 239 nM at CA I.
The like results for `Cc1ccc(C2CC(c3ccc(Cl)cc3)=NN2C(=O)Nc2ccc(S(N)(=O)=O)cc2)cc1` (stereo not shown) [compound 13, 3-(4-Chlorophenyl)-N-(4-sulfamoylphenyl)-5-(p-tolyl)-4,5-dihydro-1H-pyrazole-1-carboxamide] were, in that order, 12.3 nM, 2.9 nM, 9.2 nM, 4.5 nM and 66.7 nM.
The like results for `NS(=O)(=O)c1ccc(NC(=O)N2N=C(c3ccc(Cl)cc3)CC2c2ccc(Cl)cc2)cc1` (stereo not shown) [compound 14, 3,5-Bis(4-chlorophenyl)-N-(4-sulfamoylphenyl)-4,5-dihydro-1H-pyrazole-1-carboxamide] were, in that order, 12.7 nM, 11.4 nM, 1.1 nM, 3.3 nM and 238 nM.
In the case of `NS(=O)(=O)c1ccc(NC(=O)N2N=C(c3ccc(Cl)cc3)CC2c2ccc(F)cc2)cc1` (stereo not shown) [compound 15, 3-(4-Chlorophenyl)-5-(4-fluorophenyl)-N-(4-sulfamoylphenyl)-4,5-dihydro-1H-pyrazole-1-carboxamide], the Ki amounted to 71.3 nM on CA II; 2.7 nM on CA IX (read-out: KI (nM) / CA IX); 1 nM at CA XII; 3.2 nM on CA VII; 617 nM on CA I.
As to `NS(=O)(=O)c1ccc(NC(=O)N2N=C(c3ccc(Cl)cc3)CC2c2ccccc2Cl)cc1` (stereo not shown) [compound 16, 5-(2-Chlorophenyl)-3-(4-chlorophenyl)-N-(4-sulfamoylphenyl)-4,5-dihydro-1H-pyrazole-1-carboxamide], the Ki is 8.8 nM on CA II; 8 nM on CA IX (read-out: KI (nM) / CA II); 1.7 nM on CA XII; 4.3 nM on CA VII; 297 nM at CA I.
With `NS(=O)(=O)c1ccc(NC(=O)N2N=C(c3ccc(Cl)cc3)CC2c2ccc(Cl)cc2Cl)cc1` (stereo not shown) [compound 17, 3-(4-Chlorophenyl)-5-(2,4-dichlorophenyl)-N-(4-sulfamoylphenyl)-4,5-dihydro-1H-pyrazole-1-carboxamide], the Ki on CA II turned out to be 13.5 nM; at CA IX (read-out: KI (nM) / CA IX), 15 nM; on CA XII, 1.3 nM; at CA VII it was 27.6 nM; at CA I, 770 nM.
The like results for `NS(=O)(=O)c1ccc(NC(=O)N2N=C(c3ccc(Cl)cc3)CC2c2cccs2)cc1` (stereo not shown) [compound 18, 3-(4-Chlorophenyl)-N-(4-sulfamoylphenyl)-5-(thiophen-2-yl)-4,5-dihydro-1H-pyrazole-1-carboxamide] were, in that order, 9.2 nM, 2.5 nM, 0.62 nM, 2.9 nM and 726 nM.
The like results for `NS(=O)(=O)c1ccc(NC(=O)N2N=C(c3ccc(Cl)cc3)CC2c2c(F)cccc2Cl)cc1` (stereo not shown) [compound 19, 5-(2-Chloro-6-fluorophenyl)-3-(4-chlorophenyl)-N-(4-sulfamoylphenyl)-4,5-dihydro-1H-pyrazole-1-carboxamide] were, in that order, 10.8 nM, 2.7 nM, 6.8 nM, 2.3 nM and 42.7 nM.
The like results for `NS(=O)(=O)c1ccc(NC(=O)N2N=C(c3ccc(Cl)cc3)CC2c2ccccc2O)cc1` (stereo not shown) [compound 20, 3-(4-Chlorophenyl)-5-(2-hydroxyphenyl)-N-(4-sulfamoylphenyl)-4,5-dihydro-1H-pyrazole-1-carboxamide] were, in that order, 7.6 nM, 76.6 nM, 0.99 nM, 2.1 nM and 74.2 nM.
As to `COc1ccc(C2CC(c3ccc(Cl)cc3)=NN2C(=O)Nc2ccc(S(N)(=O)=O)cc2)cc1` (stereo not shown) [compound 21, 3-(4-Chlorophenyl)-5-(4-methoxyphenyl)-N-(4-sulfamoylphenyl)-4,5-dihydro-1H-pyrazole-1-carboxamide], the Ki at CA II is 9.4 nM; on CA IX (read-out: KI (nM) / CA IX), 2.8 nM; at CA XII, 0.82 nM; at CA VII, 2.7 nM; at CA I, 368 nM.
In the case of `COc1ccc(C2CC(c3ccc(Cl)cc3)=NN2C(=O)Nc2ccc(S(N)(=O)=O)cc2)cc1OC` (stereo not shown) [compound 22, 3-(4-Chlorophenyl)-5-(3,4-dimethoxyphenyl)-N-(4-sulfamoylphenyl)-4,5-dihydro-1H-pyrazole-1-carboxamide], the Ki on CA II amounted to 9.3 nM; on CA IX (read-out: KI (nM) / CA IX) it was 2.2 nM; at CA XII it was 1.5 nM; at CA VII, 2.3 nM; on CA I, 166 nM.
On to `NS(=O)(=O)c1ccc(NC(=O)N2N=C(c3ccc(Br)cc3)CC2c2ccccc2)cc1` (stereo not shown) [compound 23, 3-(4-Bromophenyl)-5-phenyl-45-dihydro-pyrazole-1-carboxylic acid (4-sulfamoyl-phenyl)-amide], for which the Ki at CA II is 6.3 nM; on CA IX (read-out: KI (nM) / CA IX), 1.4 nM; on CA XII it was 6.7 nM; on CA VII, 2.9 nM; on CA I, 44.4 nM.
For the compound `NS(=O)(=O)c1ccc(NC(=O)N2N=C(c3ccc(Br)cc3)CC2c2ccc(Cl)cc2)cc1` (stereo not shown) [compound 24, 3-(4-Bromophenyl)-5-(4-chlorophenyl)-4,5-dihydro-pyrazole-1-carboxylic acid (4-sulfamoyl-phenyl)-amide], the Ki at CA II was determined as 10.7 nM; at CA IX (read-out: KI (nM) / CA IX), 14.3 nM; on CA XII, 0.89 nM; on CA VII it was 2.7 nM; on CA I it was 45.5 nM.
